Measurements taken from patent publication US7538220B2, “Intermediates in the preparation of homocamptothecin analogs” (University of Pittsburgh - of the Commonwealth System of …, priority 1999, dated 2009).

How the values were obtained:
[1] = test system: MDA-MB-435 tumorigenic metastatic human breast cancer cells; experiment: Cytotoxicity, sulphorrhodamine B (SRB) assay; type: cell-based; conditions: MDA-MB-435, 72 h, read-out: IC50 (w/o HSA)
Description: Cytotoxicity measurements were conducted using MDA-MB-435 tumorigenic human breast cancer cells. The cells were exposed to a range of drug concentrations for 72 hr exposure periods and then viability was assessed using a sulphorrhodamine B (SRB) assay. The SRB measures the total protein levels in the living cells. Proteins from dead cells are lysed and removed in the washing step before TCA fixation. However, it is possible that cells in the early stage of death still have their membrane integrity and therefore retain the protein contents inside. As a result, the optical density at 490 nm can sometimes be overestimated and the cytotoxicity underestimated. […] The SRB assay is now a well regarded assay and was recently approved by NCl as a standard assay for anticancer drug screening. […] Each IC50 value represents the average of three separate trials with each dosage level studied in triplicate.

[2] = Lactone ring stability in human plasma by HPLC; type: in vitro ADME; conditions: 3 hours, 37° C., pH 7.5, 1 μM
Description: FIG. 13 depicts the improved stabilities of four novel homosilatecans of the current invention following incubation in PBS containing 30 mg/ml human serum albumin at 37° C. […] All the experiments of FIG. 14 were conducted in human plasma at 37° C. Plasma samples were continuously aerated by a stream of blood gas resulting in the maintenance of pH at values of 7.5±0.1.
(§1) HPLC solvents were from Fisher Scientific.
To characterize the stabilities of the novel silatecans of interest in human plasma, frozen plasma was incubated at 37° C. in order to thaw. Blood gas was bubbled through the plasma to adjust the pH close to 7.5. […] The samples were then allowed to incubate further at 37° C. […] Tubes were vortexed for 10 sec and centrifuged in a tabletop microcentrifuge at 8000 rpm for 45 sec. […] The sample was analyzed by HPLC as soon as possible. The data analysis was as described for drug in PBS only samples as described above. Blood gas was continuously bubbled through the plasma samples to pH at 7.5+/−[…].

[3] = Lactone ring stability in mouse blood by HPLC; conditions: for Ratio of Lactone Level Mouse/Human / underestimation of human blood lactone level by mouse blood: blood; for Ratio of Lactone Level Mouse/Human: 3 hours of incubation; for Percent Lactone in Mouse Blood after 3 Hours of Incubation: pH 7.4, 37° C.; for underestimation of human blood lactone level by mouse blood: 3 hours
Description: The hydrolysis kinetics of camptothecins in the presence of different blood components were determined by a quantitative C18 reversed-phase high-performance liquid chromatography (HPLC) assay modified from methodologies described previously in the literature cited above. The preparation of whole blood and fractionated blood samples was carried out as described previously. Crystallized HSA of high purity (>97%) from Sigma Chemical (St. Louis, Mo.) was used. HSA stock solutions were prepared in PBS buffer with a final pH of 7.40±0.05. HSA concentrations were determined by UV absorbance at 278 nm using an extinction coefficient of 39,800 M^−1 cm^−1 (Porter, 1992). All other agents were reagent grade and were used without further purification. High purity water provided by a Milli-Q UV PLUS purification system (Bedford, Mass.) was utilized in all experiments. HPLC solvents were from Fisher Scientific. Human plasma and red blood cells were obtained from Central Kentucky Blood Center. […] Blood from mice was collected in heparinized tubes and stored at 5-10° C. until use.
HPLC assays were performed either on a Waters Alliance 2690 HPLC system equipped with a temperature-controlled autosampler and Waters 474 scanning fluorescence detector. A second HPLC system was composed of a Waters HPLC system composed of 501 HPLC pumps, 717 Plus temperature-controlled autosampler and 470 scanning fluorescence detector. The HPLC assay procedures used for the homosilatecans are summarized below. Solvent A consisted of acetonitrile and Solvent B was 2% triethylammonium acetate, pH 5.5, with a flow rate of 1 ml/min. For DB-38 an isocratic elution was used: 33% Solvent A; 67% Solvent B; λex:345 nm and λem:518 nm. For DB-81 an isocratic elution was used: 56% Solvent A; 44% Solvent B; and λex:375 nm and λem:444 nm. For DB-90 an isocratic elution was used: 41% Solvent A; 59% Solvent B; λex:412 nm and λem:526 nm. For DB-91 an isocratic elution of 42% Solvent A, 58% Solvent B, and λex:392 nm and λem:562 nm.
To determine drug stability in whole blood, whole blood was incubated at 37° C. for 30 min and pH determined. Blood pH was adjusted to 7.4+/−0.5 using either 0.1 M KOH or 0.1 M HCl. Blood samples were incubated at 37° C. for 30 min and pH remeasured to ensure that it is within the range before an individual assay was started. Aliquots of blood (2 ml each) were removed and placed in three disposable glass test tubes and the tubes were incubated at 37° C. […] Incubation at 37° C. was continued and 150 μl aliquots were removed at different time points and added to 600 μl of cold methanol (−20° C.) in an eppendorf tube. The tube was then vortexed for 10 sec and centrifuged in a table top microcentrifuge at 8000 rpm for 45 sec. The Supernatant was removed and placed in an autosampler vial and the vial quickly added to the autosampler maintained at 4° C. The sample was analyzed immediately on the HPLC set-up. The data analysis was as described for the drug in PBS only samples.

[4] = Fluorescence anisotropy titration, equilibrium binding to DMPG small unilamellar vesicles; type: physicochemical; conditions: negatively charged DMPG vesicles, PBS pH 7.4, 37° C.; K values subject to 10% uncertainty
Description: As a consequence of the brilliant fluorescence emissions from the newly synthesized homosilatecans (a summary of the spectral parameters can be found in Table 1), the lipid bilayer adsorption isotherms summarized in FIG. 4 were relatively free from any background signal. The method of fluorescence anisotropy titration was used to construct the adsorption isotherms. The experiments were conducted at drug concentrations of 1 μM in PBS buffer (37° C.). […] Because of the potential of the lactone ring of the homosilatecans and camptothecins to hydrolyze in PBS, anisotropy values at each lipid concentration were determined immediately (approx. 1 min.) following the addition of the lactone form of each agent to the liposome suspension as to minimize any possibility of conversion to the carboxylate form. Using drug concentrations of 1 μM and long pass filters to isolate emitted light from background signal (that is, scattered exciting light and extraneous fluorescence signal resulting from the possible presence of impurities), signal levels from drugs dissolved in PBS buffer were typically 99.97% in the absence of membrane and greater than 98% in the presence of membrane. Adsorption isotherms were used to determine overall association constants for the homosilatecan, silatecan, and camptothecin drugs. Overall association constants are defined as: K=[AB]/[AF][L] where [AB] represents the concentration of bound drug, [AF] represents the concentration of free drug, and [L] represents the total lipid concentration in the vesicle suspension. This equation is valid when the concentration of free lipid is approximately equal to the concentration of total lipid (that is, the concentration of free lipid is in significant excess over the concentration of bound drug). Provided this condition is satisfied, K may be determined from the inverse of the slope of a double reciprocal plot. In such a double reciprocal plot, 1/fraction of the total drug bound is plotted vs. 1/lipid concentration, with a y-intercept value of 1 (for a system displaying binding site homogeneity). Such double-reciprocal plots for the associations of the new homosilatecans analogs (both lactone and carboxylate forms) with DMPC and DMPG small unilamellar vesicle (SUV) preparations were linear with good correlation coefficients.
The studies summarized in Table 2 examine the structural basis of homosilatecan associations for lipid bilayers. Two types of membranes were included in these studies which were conducted under near physiological conditions of pH and temperature; these membranes include fluid-phase and electroneutral L-α-dimyristoylphosphatidyl-choline (DMPC); and fluid-phase and negatively-charged L-α-dimyristoylphosphatidylglycerol (DMPG). DMPC and DMPG have identical chain length but the charges on their head groups differ.
In the studies of Table 2, binding isotherms were constructed using the method of fluorescence anisotropy titration as discussed above, and K values were determined from the slopes of the double-reciprocal plots. The K values are subject to 10% uncertainty. One of the most striking features of the data contained in Table 2 is the strong modulation which can be achieved through the creation of A,B,E-ring modified camptothecins (for example, the homosilatecans known as DB-38, DB-90, and DB-91) or B,E-ring modified camptothecins (for example, the homosilatecan known as DB-81). Homosilatecans containing either a sole substitution at the 7 position or dual substitution at the 7 and 10 positions have been created and found to display very high lipophilicities. Included in Table 2 are camptothecin compounds (topotecan and camptothecin). For DB-81, the lipophilicity for DMPC membranes relative to corresponding value for topotecan increases over 1,400-fold. Data for these agents were included to show the highly lipophilic nature of the new homocamptothecins relative to compounds such as topotecan and camptothecin. […]

[5] = Lactone ring stability in PBS by HPLC; type: physicochemical; conditions: 37° C., 1 μM
Description: FIG. 12 contrasts the improved stabilities of four novel homosilatecans of the present invention with their corresponding silatecan structure containing the α-hydroxylactone functionality. All the experiments of FIG. 12 were conducted in PBS at 37° C.
as §1
To determine the stabilities of homosilatecans in PBS, an aliquot of each of the homosilatecans in DMSO was added to phosphate buffered saline (PBS), pH 7.4 in a HPLC autosampler vial maintained at 37° C. in a water bath to result in final drug concentration of 1 μM. The drug-containing vial was quickly transferred to the autosampler maintained at 37° C. and aliquots analyzed at various time points. All the determinations were done in triplicate. The data was collected and analyzed using Waters Millenium software. The fraction of lactone was calculated using the peak area of lactone and carboxylate peak and using the lactone/carboxylate ratio.

Structure (SMILES)	IC50 [1]	% Lactone [2]	Ratio of Lactone Level Mouse/Human [3]	Percent Lactone in Mouse Blood after 3 Hours of Incubation [3]	KDMPG overall association constant [4]	% Lactone ([5]; PBS pH 7.4, 3 hours)	% Lactone ([5]; PBS pH 7.4, 24 hours)	underestimation of human blood lactone level by mouse blood [3]
CCC1(O)CC(=O)OCc2c1cc1n(c2=O)Cc2c-1nc1ccc(N)cc1c2[Si](C)(C)C (racemic) [DB-38, 5-Ethyl-1,4,5,13-tetrahydro-5-hydroxy-10-amino-12-trimethylsilyl-3H,15H-oxepino[3′,4′:6,7]indolizino[1,2-b]quinoline-3,15-dione]	0.02 µM	40.3 ± 2.1%	1.3	72%	800 M⁻¹	82.8 ± 0.7%	26.8 ± 2.3%	–
CCC1(O)CC(=O)OCc2c1cc1n(c2=O)Cc2c-1nc1ccccc1c2[Si](C)(C)C(C)(C)C (racemic) [DB-81, 5-Ethyl-1,4,5,13-tetrahydro-5-hydroxy-12-tert-butyldimethylsilyl-3H,15H-oxepino[3′,4′:6,7]indolizino[1,2-b]quinoline-3,15-dione]	0.077 ± 0.013 µM	85.0 ± 4.3%	0.9	80%	18500 M⁻¹	84.9 ± 0.3%	30.9 ± 2.0%	6%
CCC1(O)CC(=O)OCc2c1cc1n(c2=O)Cc2c-1nc1ccc(N)cc1c2[Si](C)(C)C(C)(C)C (racemic) [DB-90, 5-Ethyl-1,4,5,13-tetrahydro-5-hydroxy-10-amino-12-tert-butyldimethylsilyl-3H,15H-oxepino[3′,4′:6,7]indolizino[1,2-b]quinoline-3,15-dione]	0.073 ± 0.008 µM	71.1 ± 3.5%	0.7	61%	9300 M⁻¹	83.7 ± 0.5%	26.1 ± 1.0%	–
CCC1(O)CC(=O)OCc2c1cc1n(c2=O)Cc2c-1nc1ccc(O)cc1c2[Si](C)(C)C(C)(C)C (racemic) [DB-91, 5-Ethyl-1,4,5,13-tetrahydro-5-hydroxy-10-hydroxy-12-tert-butyldimethylsilyl-3H,15H-oxepino[3′,4′:6,7]indolizino[1,2-b]quinoline-3,15-dione]	0.115 ± 0.005 µM	61.5 ± 3.9%	0.8	70%	4300 M⁻¹	83.1 ± 0.3%	32.2 ± 1.0%	20%
